In US20240066075A1, “METHODS AND USES OF MICROBIOME COMPOSITIONS, COMPONENTS, OR METABOLITES FOR TREATING EYE DISORDERS” (MarvelBiome, Inc., priority 2021, published 2024):

System: NaIO3-treated ARPE-19 cells
Assay: NaIO3-induced degradation of ARPE-19 cells, MTT cell viability assay
Format: cell-based, human
Settings: 16 hours
Protocol: Cell Culture: ARPE-19 passages 3-7 were used for all experiments. Cells were cultured in %-well plates in DMEM:F12 with 10% of FBS, and incubated at 37° C. with 5% CO2 humidified atmosphere. […] Cell Viability Assay: The colorimetric MTT assay was used to check cell viability. […] At the same time different MBTs, labeled 1 through 10 and summarized in FIG. 2 and Table 2 below, were given to the treatment group at a concentration of 10^6 CFU. After 16 hours of incubation, the absorbance cell viability was evaluated by spectrophotometrically using a microplate reader at 600 nm. Cell Culture: ARPE-19 passages 3-7 were used for all experiments. Cells were cultured in 96-well plates in DMEM:F12 with 10% of FBS, and incubated at 37° C. with 5% CO2 humidified atmosphere. […] Cell Viability Assay: The colorimetric MTT assay was used to check cell viability. […] In the control group, cells were treated only with DMEM:F12 (control media; labeled 'mock-treated' in FIG. 3). […] After 16 hours of incubation, the absorbance cell viability was evaluated by spectrophotometrically using a microplate reader at 600 nm. […] After 16 hours of incubation, the absorbance cell viability was evaluated by spectrophotometrically using a microplate reader at 600 nm. […] After 16 hours of incubation, the absorbance cell viability was evaluated by spectrophotometrically using a microplate reader at 600 nm.

Compound | cell viability of NaIO3-treated ARPE-19 cells compared to controls (MTT) (1200 μg/ml NaIO3, 0.1% (w/v) of 2-keto-gluconate) | cell viability of NaIO3-treated ARPE-19 cells compared to controls (MTT) (1200 μg/ml NaIO3, all tested concentrations of 5-keto-gluconate (0.1%, 0.2%, 0.4%, 0.5% w/v))
O=C(O)C(=O)[C@@H](O)[C@H](O)[C@H](O)CO [2-keto-gluconate] | improved cell viability | –
O=C(CO)[C@@H](O)[C@H](O)[C@@H](O)C(=O)O [5-keto-gluconate] | – | improved cell viability
